The results in this text go back to patent EP0381913A1, “Benzohydroxamic-acid derivatives” (SANDOZ AG, priority 1988, dated 1990).

This experiment concerns weeds. In words: greenhouse tests after either or both pre- and post-emergence application. The class given is in vivo. The conditions noted are these: application rate corresponding to 0.25 kg/ha.

SMILES strings stand for the structures.

Description: In pre-emergence testing, small plastic greenhouse pots filled with dry soil are seeded with the various weed seeds. Twenty-four hours or less after the seeding, the pots are sprayed with water until the soil is wet and the test compounds formulated as aqueous emulsions of acetone solutions containing emulsifiers are sprayed at the indicated concentrations emulsifiers are sprayed on the surface of the soil. After spraying, the soil containers are placed in the greenhouse and provided with supplementary heat as required and daily or more frequent watering. The plants are maintained under these conditions for a period of from 14 to 21 days, at which time the conditions of the plants and the degree of injury to the plants is rated.
After spraying, the plants are placed in a greenhouse and watered daily or more frequently. Water is not applied to the foliage of the treated plants. The severity of the injury is determined 21 days after treatment and is rated.

For the compound `COC(=O)CON(C(C)=O)C(=O)c1c(Cl)ccc(Cl)c1OC` [Compound 1.12, Methyl N-acetyl-N-(3,6-dichloro-2methoxy)benzoylaminooxyacetate], the control of weeds result is listed as “substantial control of weeds”.
